Results reported in US20060057153A1, “Method and composition for the inhibition of mitosis” (priority 2002, published 2006).

Columns and labels:
S. pombe bir1-46 (Sp287) = test: Growth of bir1-46 on YES plates with thiabendazole; type: cell-based; details: 10 μg/ml TBZ, permissive temperature (28° C.), 3 days
Experimental: Briefly, to identify the phenotypes of the temperature sensitive allele, bir1-46, Wild-type and bir1-46 (Sp287) were streaked out on YES plates or 10 μg/ml of thiabendazole (TBZ), followed by incubation at either 28° C. or 32° C. for 3 days. Wild-type, bir1-46, and a rad3Δ were grown in YES medium to mid log phase (O.D.595=0.5-0.6) and then plated on YES plates followed by UV irradiation. Plates were cultured at 28° C. with a foil cover for 1 day and without a foil cover for subsequent 4 days. Colony numbers were calculated and survival rates were determined based on control plates, which were not irradiated. bir1-46 was transformed with vector alone (pUR19), pUR19-bir1^+, pUR19-Bsh3^+, or pUR19-pic1^+. Transformants were streaked out on YES plates followed by incubation at either 28° C. or 34° C. for 3 days. To conduct the high-copy suppressor screen, Sp287 (bir-46) was transformed with either a cDNA or genomic DNA library. Transformants were incubated at 28° C. for 20 hr followed by further incubation at 34° C. for five days.
Given that bir1^+ is required for chromosome segregation and cytokinesis, it is plausible that bir1^+ is also involved in mitotic spindle integrity.

HeLa cells = test: siRNA depletion in thymidine-synchronized HeLa cells, immunofluorescence staining of metaphase cells, with or without Vinblastine; type: cell-based, human; details: Buffer-transfected cells
Experimental: To further analyze the mitotic defects apparent in Bsh3-depleted cells, siRNA depletion was performed using thymidine-synchronized cells. Briefly, HeLa cells were blocked by thymidine 40 hr after siRNA transfection. After 20 hr of thymidine treatment, cells were washed and cultured in thymidine free media for 14 hr, followed by immunofluorescence staining analysis using the anti-centromere antibody, ANA-C (Sigma). Chromosomes and mitotic spindles were localized by Hoechst and anti-α-tubulin staining, respectively. […] To distinguish these two possibilities, siRNA depletion and video-microscopy were performed using a HeLa cell line expressing the histone H2B-GFP fusion protein. While the wild-type cells were able to congress and segregate their chromosomes in 45-60 min, siRNA treated cells (30%) took more than 2 hr for the same process due to the fact that some chromosomes were delayed in alignment at the metaphase plate. […] However, only 0.34% of buffer-treated cells remained in metaphase (Table 1).
To confirm this interpretation, it was analyzed whether human Bsh3 depleted cells were more sensitive to Vinblastine (VBL), a microtubule-disrupting drug. It has been shown that a low concentration of VBL (nM) alters microtubule dynamics without depolymerizing microtubules. As a result, it affects chromosome movement during metaphase and delays chromosome congression. In addition Vinblastine disrupts kinetochore tension without affecting spindle-kinetochore attachment.
siRNA depletion using thymidine-synchronized cells, which were released into culture media with different concentrations of VBL for 14 hr, was followed by immunofluorescence staining as described in the previous section.

[1] = tested on: HL-60, a promylocytic cell line; test: Bsh3 expression in HL-60 cells after treatment; type: cell-based; details: HL60 cells treated with the agent
Text: In addition to being a marker of tumor aggressiveness and treatment potential, Bsh3 expression can be used as a measurement of the effectiveness of anti-tumor therapy. In the Examples, it is shown that HL-60, a promylocytic cell line, had high levels of Bsh3 expression. […] The reduction in expression correlated with the degree of differentiation, the greater the differentiation, the lower the level of Bsh3 expression. Accordingly, Bsh3 expression can be used to measure the effectiveness of anti-tumor treatment: if Bsh3 expression decreases during treatment, the treatment protocol is effective and can be continued, whereas if Bsh3 expression remains unaltered, a different therapeutic regime or protocol needs to be performed.

**Q.** How did the “growth of bir1-46” value (S. pombe bir1-46 (Sp287)) turn out when `c1ccc2[nH]c(-c3cscn3)nc2c1` [TBZ, Thiabendazole] was run?
**A.** failed to grow

**Q.** For `CC[C@]1(O)C[C@@H]2CN(CCc3c([nH]c4ccccc34)[C@@](C(=O)OC)(c3cc4c(cc3OC)N(C)[C@H]3[C@@](O)(C(=O)OC)[C@H](OC(C)=O)[C@]5(CC)C=CCN6CC[C@]43[C@@H]65)C2)C1` [VBL, Vinblastine], which “% of cells in metaphase” value (HeLa cells; VBL 0.1 nM for 14 hr) is on record?
**A.** 1.5%

**Q.** And the “% of cells in metaphase” value (HeLa cells; VBL 0.5 nM for 14 hr)?
**A.** 1.7%

**Q.** What about the “% of cells in metaphase” value (HeLa cells; VBL 1 nM for 14 hr) of the same compound?
**A.** 13.6%

**Q.** For `CC1=C(/C=C/C(C)=C/C=C/C(C)=C/C(=O)O)C(C)(C)CCC1` [retenoic acid], which Bsh3 expression [1] is on record?
**A.** reduction and elimination of Bsh3 expression
